Test results published in paper PMC3961306, “Comparison of the Cancer Gene Targeting and Biochemical Selectivities of All Targeted Kinase Inhibitors Approved for Clinical Use” (PLoS ONE, 2014).
pIC50: −log10 of the molar value. Where “and” joins values, the source holds several entries; their conditions need not be identical. Equal entries are not always repeated. Where two headings read alike, the source gives them in different places. Blank lines part the entries; values can stand above or below the compound they belong to.

Tested on: forty-four human cancer cell lines
Experiment: Cell proliferation assay (ATPlite, 72 hours) in the 44 cell line Oncolines panel
Assay type: cell-based

SMILES: CN(C)C/C=C/C(=O)Nc1cc2c(Nc3ccc(F)c(Cl)c3)ncnc2cc1O[C@H]1CCOC1 [afatinib]
pIC50 (Homo sapiens, 4-4 cell, read-out: cell panel IC50, J82): 5.48
pIC50 (Homo sapiens, 4-4 cell, read-out: cell panel IC50, PA-1): 5.72
pIC50 (Homo sapiens, 4-4 cell, read-out: cell panel IC50, SJCRH30): 5.61
pIC50 (Homo sapiens, 4-4 cell, read-out: cell panel IC50, SR): 6.01
pIC50 (Homo sapiens, 769-P, read-out: cell panel IC50, 769-P): 5.65
pIC50 (Homo sapiens, 786-0, read-out: cell panel IC50, 786-0): 5.56
pIC50 (Homo sapiens, A 172, read-out: cell panel IC50, A-172): 5.53
pIC50 (Homo sapiens, A204, read-out: cell panel IC50, A-204): 5.65
pIC50 (Homo sapiens, A498, read-out: cell panel IC50, A-498): 5.56
pIC50 (Homo sapiens, A549, read-out: cell panel IC50, A-549): 5.50
pIC50 (Homo sapiens, A-375, read-out: cell panel IC50, A375): 5.89
pIC50 (Homo sapiens, A-427, read-out: cell panel IC50, A-427): 5.54
pIC50 (Homo sapiens, ACHN, read-out: cell panel IC50, ACHN): 6.53
pIC50 (Homo sapiens, AN3-CA, read-out: cell panel IC50, AN3 CA): 5.56
pIC50 (Homo sapiens, AU565, read-out: cell panel IC50, AU-565): 7.89
pIC50 (Homo sapiens, BT-20, read-out: cell panel IC50, BT-20): 5.36
pIC50 (Homo sapiens, BT-549, read-out: cell panel IC50, BT-549): 5.49
pIC50 (Homo sapiens, BXPC-3, read-out: cell panel IC50, BxPC-3): 5.43
pIC50 (Homo sapiens, C-33-A, read-out: cell panel IC50, C-33 A): 7.68
pIC50 (Homo sapiens, CAL-27, read-out: cell panel IC50, CAL 27): 6.36
pIC50 (Homo sapiens, CCRF-CEM, read-out: cell panel IC50, CCRF-CEM): 5.89
pIC50 (Homo sapiens, DLD-1, read-out: cell panel IC50, DLD-1): 5.77
pIC50 (Homo sapiens, FaDu, read-out: cell panel IC50, FaDu): 8.47
pIC50 (Homo sapiens, HCT-15, read-out: cell panel IC50, HCT-15): 5.81
pIC50 (Homo sapiens, HCT-116, read-out: cell panel IC50, HCT-116): 6.03
pIC50 (Homo sapiens, Hs-578T, read-out: cell panel IC50, Hs 578T): 5.47
pIC50 (Homo sapiens, Jurkat E6.1, read-out: cell panel IC50, Jurkat E6.1): 6.06
pIC50 (Homo sapiens, K562, read-out: cell panel IC50, K-562): 5.49
pIC50 (Homo sapiens, LS174T, read-out: cell panel IC50, LS 174T): 5.88
pIC50 (Homo sapiens, LoVo, read-out: cell panel IC50, LoVo): 5.68
pIC50 (Homo sapiens, MG-63, read-out: cell panel IC50, MG-63): 5.55
pIC50 (Homo sapiens, MOLT-4, read-out: cell panel IC50, MOLT-4): 6.04
pIC50 (Homo sapiens, MeWo, read-out: cell panel IC50, MeWo): 5.42
pIC50 (Homo sapiens, NCI-H82, read-out: cell panel IC50, NCI-H82): 5.65
pIC50 (Homo sapiens, NCI-H460, read-out: cell panel IC50, NCI-H460): 5.58
pIC50 (Homo sapiens, OVCAR-3, read-out: cell panel IC50, OVCAR-3): 5.68
pIC50 (Homo sapiens, RPMI-7951, read-out: cell panel IC50, RPMI-7951): 5.45
pIC50 (Homo sapiens, SHP77, read-out: cell panel IC50, SHP-77): 5.44
pIC50 (Homo sapiens, SK-N-AS, read-out: cell panel IC50, SK-N-AS): 5.65
pIC50 (Homo sapiens, SW48, read-out: cell panel IC50, SW48): 5.38
pIC50 (Homo sapiens, SW480, read-out: cell panel IC50, SW480): 5.44
pIC50 (Homo sapiens, SW-620, read-out: cell panel IC50, SW620): 5.47
pIC50 (Homo sapiens, U2OS, read-out: cell panel IC50, U-2 OS): 5.59
pIC50 (Homo sapiens, U-87 MG, 72 h, read-out: IC50 in cell proliferation assay (table S5 cellpanel data)): 5.30

pIC50 (Homo sapiens, 769-P, cell line 769-P, read-out: cell panel IC50, 769-P): 6.95
pIC50 (Homo sapiens, 786-0, cell line 786-0, read-out: cell panel IC50, 786-0): 6.90
pIC50 (Homo sapiens, A 172, read-out: cell panel IC50, A-172, cell line A-172): 7.03
pIC50 (Homo sapiens, A498, read-out: cell panel IC50, A-498, cell line A-498): 7.02
pIC50 (Homo sapiens, A549, read-out: cell panel IC50, A-549, cell line A-549): 7.09
pIC50 (Homo sapiens, A-375, cell line A375, read-out: cell panel IC50, A375): 7.42
pIC50 (Homo sapiens, A-427, read-out: cell panel IC50, A-427, cell line A-427): 7.57
pIC50 (Homo sapiens, ACHN, cell line ACHN, read-out: cell panel IC50, ACHN): 7.21
pIC50 (Homo sapiens, AN3-CA, cell line AN3 CA, read-out: cell panel IC50, AN3 CA): 7.12
pIC50 (Homo sapiens, AU565, read-out: cell panel IC50, AU-565, cell line AU-565): 7.14
pIC50 (Homo sapiens, BT-20, cell line BT-20, read-out: cell panel IC50, BT-20): 6.72
pIC50 (Homo sapiens, BT-549, read-out: cell panel IC50, BT-549, cell line BT-549): 7.12
pIC50 (Homo sapiens, BXPC-3, cell line BxPC-3, read-out: cell panel IC50, BxPC-3): 6.76
pIC50 (Homo sapiens, C-33-A, cell line C-33 A, read-out: cell panel IC50, C-33 A): 7.59
pIC50 (Homo sapiens, CAL-27, cell line CAL 27, read-out: cell panel IC50, CAL 27): 7.68
pIC50 (Homo sapiens, CCRF-CEM, cell line CCRF-CEM, read-out: cell panel IC50, CCRF-CEM): 7.77
pIC50 (Homo sapiens, DLD-1, cell line DLD-1, read-out: cell panel IC50, DLD-1): 6.36
pIC50 (Homo sapiens, FaDu, cell line FaDu, read-out: cell panel IC50, FaDu): 7.35
pIC50 (Homo sapiens, HCT-15, cell line HCT-15, read-out: cell panel IC50, HCT-15): 6.63
pIC50 (Homo sapiens, HCT-116, read-out: cell panel IC50, HCT-116, cell line HCT-116): 7.36
pIC50 (Homo sapiens, Hs-578T, cell line Hs 578T, read-out: cell panel IC50, Hs 578T): 7.10
pIC50 (Homo sapiens, Jurkat E6.1, cell line Jurkat E6.1, read-out: cell panel IC50, Jurkat E6.1): 7.59
pIC50 (Homo sapiens, K562, read-out: cell panel IC50, K-562, cell line K-562): 7.26
pIC50 (Homo sapiens, LoVo, cell line LoVo, read-out: cell panel IC50, LoVo): 7.31
pIC50 (Homo sapiens, MG-63, cell line MG-63, read-out: cell panel IC50, MG-63): 7.25
pIC50 (Homo sapiens, MOLT-4, cell line MOLT-4, read-out: cell panel IC50, MOLT-4): 7.92
pIC50 (Homo sapiens, MeWo, cell line MeWo, read-out: cell panel IC50, MeWo): 6.69
pIC50 (Homo sapiens, NCI-H82, cell line NCI-H82, read-out: cell panel IC50, NCI-H82): 7.28
pIC50 (Homo sapiens, NCI-H460, cell line NCI-H460, read-out: cell panel IC50, NCI-H460): 7.68
pIC50 (Homo sapiens, OVCAR-3, cell line OVCAR-3, read-out: cell panel IC50, OVCAR-3): 6.59
pIC50 (Homo sapiens, RPMI-7951, cell line RPMI-7951, read-out: cell panel IC50, RPMI-7951): 7.55
pIC50 (Homo sapiens, SK-N-AS, cell line SK-N-AS, read-out: cell panel IC50, SK-N-AS): 7.14
pIC50 (Homo sapiens, SW48, cell line SW48, read-out: cell panel IC50, SW48): 6.68
pIC50 (Homo sapiens, SW480, cell line SW480, read-out: cell panel IC50, SW480): 6.45
pIC50 (Homo sapiens, SW-620, cell line SW620, read-out: cell panel IC50, SW620): 6.53
pIC50 (Homo sapiens, U2OS, cell line U-2 OS, read-out: cell panel IC50, U-2 OS): 6.96
pIC50 (Homo sapiens, U-87 MG, 72 h, U-87 MG cell line, ATPlite, 72 hours, read-out: IC50 in cell proliferation assay (table S5 cellpanel data)): 6.95
pIC50 (Homo sapiens, cell line J82, read-out: cell panel IC50, J82): 6.82
pIC50 (Homo sapiens, cell line PA-1, read-out: cell panel IC50, PA-1): 8.40
pIC50 (Homo sapiens, cell line SJCRH30, read-out: cell panel IC50, SJCRH30): 7.15
pIC50 (Homo sapiens, cell line SR, read-out: cell panel IC50, SR): 8.22
pIC50 (U-87 MG cell line, ATPlite, 72 hours, read-out: IC50 in cell proliferation assay (table S5 cellpanel data)): 7.05
pIC50 (cell line 769-P, read-out: cell panel IC50, 769-P): 6.85 and 6.84
pIC50 (cell line 786-0, read-out: cell panel IC50, 786-0): 6.99
pIC50 (cell line A375, read-out: cell panel IC50, A375): 7.46 and 7.29
pIC50 (cell line ACHN, read-out: cell panel IC50, ACHN): 7.08
pIC50 (cell line AN3 CA, read-out: cell panel IC50, AN3 CA): 7.09 and 7.03
pIC50 (cell line BT-20, read-out: cell panel IC50, BT-20): 6.68 and 6.80
pIC50 (cell line BxPC-3, read-out: cell panel IC50, BxPC-3): 6.64 and 6.54
pIC50 (cell line CAL 27, read-out: cell panel IC50, CAL 27): 7.70
pIC50 (cell line CCRF-CEM, read-out: cell panel IC50, CCRF-CEM): 7.70
pIC50 (cell line DLD-1, read-out: cell panel IC50, DLD-1): 6.37 and 6.46
pIC50 (cell line FaDu, read-out: cell panel IC50, FaDu): 7.33 and 7.24
pIC50 (cell line HCT-15, read-out: cell panel IC50, HCT-15): 6.60 and 6.56
pIC50 (cell line Hs 578T, read-out: cell panel IC50, Hs 578T): 7.05 and 7.24
pIC50 (cell line J82, read-out: cell panel IC50, J82): 6.84 and 6.87
pIC50 (cell line Jurkat E6.1, read-out: cell panel IC50, Jurkat E6.1): 7.51 and 7.62
pIC50 (cell line LoVo, read-out: cell panel IC50, LoVo): 7.23
pIC50 (cell line MG-63, read-out: cell panel IC50, MG-63): 7.17 and 7.06
pIC50 (cell line MOLT-4, read-out: cell panel IC50, MOLT-4): 7.96 and 7.89
pIC50 (cell line MeWo, read-out: cell panel IC50, MeWo): 6.65 and 6.58
pIC50 (cell line NCI-H82, read-out: cell panel IC50, NCI-H82): 7.19
pIC50 (cell line NCI-H460, read-out: cell panel IC50, NCI-H460): 7.60
pIC50 (cell line OVCAR-3, read-out: cell panel IC50, OVCAR-3): 6.50 and 6.56
pIC50 (cell line PA-1, read-out: cell panel IC50, PA-1): 8.28 and 8.19
pIC50 (cell line RPMI-7951, read-out: cell panel IC50, RPMI-7951): 7.48 and 7.49
pIC50 (cell line SJCRH30, read-out: cell panel IC50, SJCRH30): 7.21 and 7.37
pIC50 (cell line SK-N-AS, read-out: cell panel IC50, SK-N-AS): 7.00
pIC50 (cell line SR, read-out: cell panel IC50, SR): 8.18 and 8.00
pIC50 (cell line SW48, read-out: cell panel IC50, SW48): 6.95 and 6.92
pIC50 (cell line SW480, read-out: cell panel IC50, SW480): 6.50 and 6.43
pIC50 (cell line SW620, read-out: cell panel IC50, SW620): 6.45 and 6.35
pIC50 (cell line U-2 OS, read-out: cell panel IC50, U-2 OS): 6.94 and 6.82
pIC50 (read-out: cell panel IC50, A-172, cell line A-172): 7.02
pIC50 (read-out: cell panel IC50, A-427, cell line A-427): 7.51 and 7.40
pIC50 (read-out: cell panel IC50, A-498, cell line A-498): 7.04
pIC50 (read-out: cell panel IC50, A-549, cell line A-549): 7.17
pIC50 (read-out: cell panel IC50, AU-565, cell line AU-565): 7.03 and 7.10
pIC50 (read-out: cell panel IC50, BT-549, cell line BT-549): 7.05
pIC50 (read-out: cell panel IC50, HCT-116, cell line HCT-116): 7.21 and 7.19
pIC50 (read-out: cell panel IC50, K-562, cell line K-562): 7.24
SMILES: COc1cccc2c1C(=O)c1c(O)c3c(c(O)c1C2=O)C[C@@](O)(C(=O)CO)C[C@@H]3O[C@H]1C[C@H](N)[C@H](O)[C@H](C)O1 [doxorubicin]
